Key:
Test in all cases: relative viability (nuclei count vs DMSO), 5 days (fraction); higher = more cells survive
[1] = compound: CCn1c(-c2nonc2N)nc2cnc(Oc3cccc(NC(=O)c4ccc(OCCN5CCOCC5)cc4)c3)cc21 + CC(=O)c1c(C)c2cnc(Nc3ccc(N4CCNCC4)cn3)nc2n(C2CCCC2)c1=O [Palbociclib] (partner 0.5 µM)
Procedure, shortened: (§1)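 Cells from lung cancer lines were seeded into 1536-well plates and, one day later, dosed by pin tool. Treatments were either a single drug or a fixed dose of an anchor drug with five library-drug doses (not always all listed) in √10 steps. After 5 days, nuclei were stained in a one-step fixation (final 0.05% Triton X-100, 1% formaldehyde, 1 ug/ml Hoechst) and counted on 4× images, and relative viability is the treated-to-vehicle nuclei ratio, as the median of duplicate plates.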

[2] = compound: CCC1=CN=CN=C1N2CCN(CC2)CC3=NC4=C(N3)C=C(C=C4)C(F)(F)F + NC(=O)Nc1cc(-c2cccc(F)c2)sc1C(=O)N[C@H]1CCCNC1 [AZD7762] (partner 0.2 µM)
Procedure, shortened: as §1

[3] = compound: N=C1NC(=O)/C(=C/c2ccc(O)cc2)S1 [Mirin] + CC(=O)c1c(C)c2cnc(Nc3ccc(N4CCNCC4)cn3)nc2n(C2CCCC2)c1=O [Palbociclib] (partner 0.5 µM)
Procedure, shortened: as §1

[4] = compound: CCC1=CN=CN=C1N2CCN(CC2)CC3=NC4=C(N3)C=C(C=C4)C(F)(F)F + CC1(C)CCC(c2ccc(Cl)cc2)=C(CN2CCN(c3ccc(C(=O)NS(=O)(=O)c4ccc(N[C@H](CCN5CCOCC5)CSc5ccccc5)c(S(=O)(=O)C(F)(F)F)c4)cc3)CC2)C1 [Navitoclax] (partner 0.5 µM)
Procedure, shortened: as §1

Cell Line	relative viability ([1]; first compound 0.04 µM)	relative viability ([1]; first compound 0.1265 µM)	relative viability ([1]; first compound 0.4 µM)	relative viability ([1]; first compound 1.265 µM)	relative viability ([1]; first compound 4 µM)	relative viability ([2]; first compound 0.04 µM)	relative viability ([2]; first compound 0.1265 µM)	relative viability ([2]; first compound 0.4 µM)	relative viability ([2]; first compound 4 µM)	relative viability ([3]; first compound 0.25 µM)	relative viability ([3]; first compound 0.7906 µM)	relative viability ([3]; first compound 2.5 µM)	relative viability ([3]; first compound 7.906 µM)	relative viability ([3]; first compound 25 µM)	relative viability ([4]; first compound 0.04 µM)	relative viability ([4]; first compound 0.1265 µM)	relative viability ([4]; first compound 0.4 µM)	relative viability ([4]; first compound 4 µM)	relative viability ([2]; first compound 1.265 µM)	relative viability ([4]; first compound 1.265 µM)
SW 900	0.54	0.517	0.572	0.521	0.574	0.552	0.571	0.48	0.702	0.478	0.485	0.499	0.464	0.503						
NCI-H1944	0.269	0.377	0.342	0.329	0.38	0.757	0.512	0.465	0.607	0.315	0.325	0.328	0.287	0.226	0.97	0.948	1	0.916	0.379	
NCI-H838	0.19	0.175	0.147	0.157	0.179	1.04	0.877	0.904	0.948	0.25	0.232	0.232	0.234	0.236	1.23	1.12	1.11	1.07	0.829	1.14
NCI-H1650	0.466	0.32	0.294	0.335	0.328					0.362	0.346	0.336	0.369	0.263	1.26	1.08	1.22	1.4		1.02
HCC-827	0.49	0.541	0.501	0.455	0.481	0.186	0.233	0.208	0.174	0.524	0.37	0.459	0.439	0.418	1.08	1.03	1.03	0.937	0.196	0.903
HCC-366	0.367	0.375	0.354	0.105	0.0645	0.33	0.256	0.219	0.302	0.35	0.39	0.405	0.404	0.366	1.07	1.04	1	1.05	0.226	
HARA	0.278	0.232	0.242	0.172	0.199	0.484	0.263	0.339	0.436	0.273	0.277	0.265	0.293	0.268	1.18	1.13	1.15	1.19	0.292	1.11
NCI-H441	0.26	0.234	0.157	0.226	0.25	1.29	1.15	1.03	1.21	0.259	0.232	0.241	0.242	0.175	0.448	0.523	0.57	0.677	1.15	0.573
LXF-289	0.67	0.654	0.6	0.585	0.548	1.3	1.01	1.1	1.05	0.585	0.648	0.591	0.623	0.701	1.08	0.912	0.948	0.896	1.29	0.885
RERF-LC-KJ	1.1	1.08	0.969	0.655	0.678	0.795	0.953	0.976	0.952	1.14	1.09	1.2	1.2	1.1	0.906	0.887	0.956	0.719	0.97	0.698
CAL-12T	0.778	0.619	0.47	0.345	0.298	0.501	0.6	0.609	0.604	0.265	0.193	0.508	0.408	0.339	1.26	1.28	1.21	1.17	0.679	1.23
COR-L 105	0.407	0.402	0.344	0.36	0.336					0.426	0.415	0.376	0.432	0.42	0.714	0.717	0.695	0.651		0.868
NCI-H2405	0.572	0.361	0.304	0.234	0.222	0.772	0.735	0.674	0.901	0.512		0.526	0.568	0.511	0.86	0.937	0.834	0.997		
NCI-H2228	0.852	0.8	0.652	0.683	0.644					0.863	0.704	0.799	0.647	0.622	0.996	0.847	0.979	0.747		0.888

From the supplement of paper PMC10307832
